In test [1] the target is NRAS Q61R (Homo sapiens (Human), UniProt P01111+P62937, Q61R). The test is described as follows: Ras-Raf (BRAF RBD) disruption / FRET / MOA assay, NRAS Q61R. Format: biochemical. As to conditions: NRAS Q61R; Ras-Raf disruption/FRET/MOA assay; read-out: IC50* NRAS Q61R FRET data. In short, it runs like this: (§1)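 Compounds were tested as a 10-point 3-fold dilution series from 30 μM final for their ability to drive ternary complex formation between nucleotide-loaded Ras and cyclophilin A, displacing the BRAF RBD. After 3 h at 25° C., anti-His Eu-W1024 (10 nM) and anti-GST allophycocyanin (50 nM) were added for 1.5 h. A TR-FRET ratio decrease versus DMSO gave IC50.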

Test [2] concerns the target KRAS G12S (Homo sapiens (Human), UniProt P01116+P62937, G12S). The test is described as follows: Ras-Raf (BRAF RBD) disruption / FRET / MOA assay, KRAS G12S. Format: biochemical. The settings on record: Ras-Raf disruption/FRET/MOA assay; class symbols; read-out: KRAS G12S FRET data IC50. The essentials: (§2)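 Ternary complex formation (Ras–compound–cyclophilin A) displacing BRAF RBD, monitored by TR-FRET. Three hours at 25° C with compound (top 30 μM final), then 1.5 h with the labelled antibodies. Lower ratio than DMSO indicates disruption; IC50 reported.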

Test [3] deals with NCI-H358 (K-Ras G12C). The test is described as follows: CellTiter-Glo cell viability assay, NCI-H358. Format: cell-based, human. The settings on record: Homo sapiens, NCI-H358, 120 h, NCI-H358, 5-day treatment; class symbols; read-out: Additional H358 Cell Viability assay data (K-Ras G12C, IC50). In short, it runs like this:
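Luminescent viability readout on day 5 after direct compound addition to plated cells; plates sat ~30 min at room temperature before reading. Values expressed as percent of mean DMSO signal, curves fit with a four-parameter logistic model.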
Background: Cellular ATP, detected with luciferase, serves as a proxy for viable cell number.

Test [4] addresses KRAS G12V (Homo sapiens (Human), UniProt P01116+P62937, G12V). In words: Ras-Raf (BRAF RBD) disruption / FRET / MOA assay, KRAS G12V. Format: biochemical. The settings on record: read-out: IC50* KRAS G12V FRET data. The essentials: as §2
Test [5] deals with NRAS Q61K (Homo sapiens (Human), UniProt P01111+P62937, Q61K). In words: Ras-Raf (BRAF RBD) disruption / FRET / MOA assay, NRAS Q61K. The settings on record: NRAS Q61K; Ras-Raf disruption/FRET/MOA assay; read-out: IC50* NRAS Q61K FRET data. Format: biochemical. In short, it runs like this:
as §1

For test [6], the target named is K-Ras G13C (Homo sapiens (Human), UniProt P01116+P62937, G13C). In words: Ras-Raf (BRAF RBD) disruption / FRET / MOA assay, KRAS G13C. Format: biochemical. As to conditions: KRAS G13C; Ras-Raf disruption/FRET/MOA assay; read-out: IC50* KRAS G13C FRET data. The essentials:
as §2

Test [7] deals with KRAS G13D (Homo sapiens (Human), UniProt P01116+P62937, G13D). The test is described as follows: Ras-Raf (BRAF RBD) disruption / FRET / MOA assay, KRAS G13D. As to conditions: read-out: IC50* KRAS G13D FRET data. Format: biochemical. The essentials: as §2
Test [8] deals with KRAS G12D (Homo sapiens (Human), UniProt P01116+P62937, G12D). In words: Ras-Raf (BRAF RBD) disruption / FRET / MOA assay, KRAS G12D. The settings on record: Ras-Raf disruption/FRET/MOA assay; class symbols; read-out: KRAS G12D FRET data IC50. Format: biochemical. In short, it runs like this: as §2
Test [9] addresses NRAS WT (Homo sapiens (Human), UniProt P01111+P62937). The test is described as follows: Ras-Raf (BRAF RBD) disruption / FRET / MOA assay, NRAS WT. The settings on record: read-out: IC50* NRAS WT FRET data. Format: biochemical. In short, it runs like this: as §1
The target in test [10] is KRAS WT (Homo sapiens (Human), UniProt P01116+P62937). The test is described as follows: Ras-Raf (BRAF RBD) disruption / FRET / MOA assay, KRAS WT. Format: biochemical. As to conditions: read-out: IC50* KRAS WT FRET data. The essentials:
as §2

Each structure is given as a SMILES string.

Sequence of NRAS Q61R (P01111 whole entry Q61R): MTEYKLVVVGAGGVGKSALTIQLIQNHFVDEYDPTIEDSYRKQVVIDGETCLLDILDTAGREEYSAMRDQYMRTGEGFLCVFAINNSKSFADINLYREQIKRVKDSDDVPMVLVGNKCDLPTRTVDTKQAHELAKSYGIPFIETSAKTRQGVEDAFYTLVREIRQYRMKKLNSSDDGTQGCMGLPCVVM
Sequence of NRAS Q61R (P62937 whole entry): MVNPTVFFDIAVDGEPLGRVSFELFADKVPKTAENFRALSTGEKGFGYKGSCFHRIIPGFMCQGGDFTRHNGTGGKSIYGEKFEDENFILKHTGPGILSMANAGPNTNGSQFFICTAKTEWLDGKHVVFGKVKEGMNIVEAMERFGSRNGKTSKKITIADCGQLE
Sequence of KRAS G12S (P01116-2 other isoform, or with tags, fused parts or gaps G12S): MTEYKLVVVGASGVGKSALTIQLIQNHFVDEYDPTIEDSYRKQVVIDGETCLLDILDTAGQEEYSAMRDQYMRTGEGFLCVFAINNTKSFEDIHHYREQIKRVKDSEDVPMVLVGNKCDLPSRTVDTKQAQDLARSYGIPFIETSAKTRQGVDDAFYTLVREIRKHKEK
Sequence of KRAS G12S (P62937 whole entry): as the sequence (P62937 whole entry) above
Sequence of K-Ras G13C (P01116-2 other isoform, or with tags, fused parts or gaps G13C): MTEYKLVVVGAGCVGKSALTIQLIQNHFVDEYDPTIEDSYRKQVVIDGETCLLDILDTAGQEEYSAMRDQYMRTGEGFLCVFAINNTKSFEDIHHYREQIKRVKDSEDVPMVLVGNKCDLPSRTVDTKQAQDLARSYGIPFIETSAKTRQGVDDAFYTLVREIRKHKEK
Sequence of K-Ras G13C (P62937 whole entry): as the sequence (P62937 whole entry) above
Sequence of NRAS WT (P01111 whole entry): as the sequence (P01111 whole entry Q61R) above, with R61Q counted along it
Sequence of NRAS WT (P62937 whole entry): as the sequence (P62937 whole entry) above
Sequence of KRAS G12V (P01116-2 other isoform, or with tags, fused parts or gaps G12V): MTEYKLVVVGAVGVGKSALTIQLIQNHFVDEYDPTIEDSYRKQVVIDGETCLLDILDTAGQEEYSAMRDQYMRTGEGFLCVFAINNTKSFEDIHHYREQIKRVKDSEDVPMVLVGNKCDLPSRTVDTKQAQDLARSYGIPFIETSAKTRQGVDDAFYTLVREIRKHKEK
Sequence of KRAS G12V (P62937 whole entry): as the sequence (P62937 whole entry) above
Sequence of NRAS Q61K (P01111 whole entry Q61K): as the sequence (P01111 whole entry Q61R) above, with R61K counted along it
Sequence of NRAS Q61K (P62937 whole entry): as the sequence (P62937 whole entry) above
Sequence of KRAS G12D (P01116-2 other isoform, or with tags, fused parts or gaps G12D): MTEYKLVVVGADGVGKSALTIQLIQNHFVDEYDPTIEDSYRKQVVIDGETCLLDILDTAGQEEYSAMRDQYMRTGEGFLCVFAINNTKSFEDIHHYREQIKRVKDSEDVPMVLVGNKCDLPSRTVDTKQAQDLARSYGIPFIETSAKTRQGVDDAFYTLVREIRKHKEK
Sequence of KRAS G12D (P62937 whole entry): as the sequence (P62937 whole entry) above
Sequence of KRAS WT (P01116-2 other isoform, or with tags, fused parts or gaps): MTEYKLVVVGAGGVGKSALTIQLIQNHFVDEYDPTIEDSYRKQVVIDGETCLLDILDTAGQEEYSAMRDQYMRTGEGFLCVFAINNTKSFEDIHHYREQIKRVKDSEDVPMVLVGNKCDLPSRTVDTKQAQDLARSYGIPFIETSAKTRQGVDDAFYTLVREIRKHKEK
Sequence of KRAS WT (P62937 whole entry): as the sequence (P62937 whole entry) above
Sequence of KRAS G13D (P01116-2 other isoform, or with tags, fused parts or gaps G13D): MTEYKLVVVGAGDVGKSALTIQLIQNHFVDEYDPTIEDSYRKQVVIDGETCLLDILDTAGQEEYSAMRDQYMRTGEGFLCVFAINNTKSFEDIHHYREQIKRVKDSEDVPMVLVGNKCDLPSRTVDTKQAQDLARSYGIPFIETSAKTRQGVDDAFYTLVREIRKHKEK
Sequence of KRAS G13D (P62937 whole entry): as the sequence (P62937 whole entry) above

With `C=CC(=O)N(C)[C@@H]1C[C@H](C)N(C(=O)N(C)[C@H](C(=O)N[C@H]2Cc3nc(cs3)-c3ccc4c(c3)c(c(-c3cccnc3[C@H](C)OC)n4CC)CC(C)(C)COC(=O)[C@@H]3CCCN(N3)C2=O)C(C)C)C1` (atropisomer, axis not shown) [Example A633], the half-maximal inhibitory concentration (IC50) in test [1] was 10 to 100 nM; in [2], 100 to 1000 nM; in test [3], 10 to 100 nM; in test [4] it was 100 to 1000 nM; in test [5], 10 to 100 nM; in test [6], 100 to 1000 nM. Further, the concentration for half-maximal inhibition (IC50) fell in the range of 100 to 1000 nM in [7], 100 to 1000 nM in [8], 10 to 100 nM in test [9] and 10 to 100 nM in test [10].
As to `C=CC(=O)N(C)[C@@H]1C[C@@H](C)N(C(=O)N(C)[C@H](C(=O)N[C@H]2Cc3nc(cs3)-c3ccc4c(c3)c(c(-c3cccnc3[C@H](C)OC)n4CC)CC(C)(C)COC(=O)[C@@H]3CCCN(N3)C2=O)C(C)C)C1` (atropisomer, axis not shown) [Example A634], the half-inhibitory concentration (IC50) lay within 100 to 1000 nM in test [1]; 100 to 1000 nM in test [2]; 10 to 100 nM in [3]; 100 to 1000 nM in test [4]; 100 to 1000 nM in test [5]; 100 to 1000 nM in test [6]. In addition, the IC50 in test [7] fell in the range of 1000 to 10000 nM; in test [8], 1000 to 10000 nM; in test [9], 100 to 1000 nM; in test [10] it was 100 to 1000 nM.
`C=CC(=O)N1CCCC2(CCN(C(=O)N(C)[C@H](C(=O)N[C@H]3Cc4nc(cs4)-c4ccc5c(c4)c(c(-c4cccnc4[C@H](C)OC)n5CC)CC(C)(C)COC(=O)[C@@H]4CCCN(N4)C3=O)C(C)C)CC2)C1` (atropisomer, axis not shown) [Example A635]: the IC50 in test [1], in test [2], in test [3], in test [4], in test [5] and in test [6] was 100 to 1000 nM each time. In addition, the IC50 lay in the range of 1000 to 10000 nM in test [7], 1000 to 10000 nM in test [8], 100 to 1000 nM in test [9] and 100 to 1000 nM in [10].
In the case of `C=CC(=O)N1CC2(CCN2C(=O)N(C)[C@H](C(=O)N[C@H]2Cc3cccc(n3)-c3ccc4c(c3)c(c(-c3cccnc3[C@H](C)OC)n4CC)CC(C)(C)COC(=O)[C@@H]3CCCN(N3)C2=O)C(C)C)C1` (atropisomer, axis not shown) [Example A636], the IC50 was 100 to 1000 nM in [1]; 100 to 1000 nM in [2]; under 10 nM in test [3]; 1000 to 10000 nM in [4]; 100 to 1000 nM in test [5]; 100 to 1000 nM in test [6]. Besides, the IC50 in test [7] is 1000 to 10000 nM; in test [8], 1000 to 10000 nM; in test [9], 100 to 1000 nM; in [10] it was 100 to 1000 nM.
With `CCn1c(-c2cccnc2[C@H](C)OC)c2c3cc(ccc31)-c1csc(n1)C[C@H](NC(=O)C[C@@H](C)OC1CN(C(=O)C#CC(C)(C)N(C)C)C1)C(=O)N1CCC[C@H](N1)C(=O)OCC(C)(C)C2` (atropisomer, axis not shown) [Example A638], the IC50 in [1] was in the range of 1000 to 10000 nM; in test [2], 1000 to 10000 nM; in test [3], 10 to 100 nM; in test [4], 1000 to 10000 nM; in test [5], 1000 to 10000 nM; in test [6], 1000 to 10000 nM. For the same compound, the IC50 in test [7] is 1000 to 10000 nM; in test [8], over 10000 nM; in test [9] it was 1000 to 10000 nM; in [10], 1000 to 10000 nM.
For the compound `C=CC(=O)N1CC[C@H](C(=O)N(C)[C@H](C(=O)N[C@H]2Cc3cccc(c3)-c3ccc4c(c3)c(c(-c3cccnc3[C@H](C)OC)n4CC)CC(C)(C)COC(=O)[C@@H]3CCCN(N3)C2=O)[C@@H](C)C(F)(F)F)C1` (atropisomer, axis not shown) [Example A640], the concentration for half-maximal inhibition (IC50) in test [1] lay in the range of 1000 to 10000 nM; in test [2] it was 1000 to 10000 nM; in [3], 10 to 100 nM; in test [4], 1000 to 10000 nM; in test [5], 1000 to 10000 nM; in test [6], 100 to 1000 nM. The 50% inhibitory concentration (IC50) in [7], in test [8], in [9] and in test [10] was 1000 to 10000 nM each time.

Broadly, the IC50 is the concentration that inhibits the measured activity by half.

The values above are taken from patent publication US11566007B2, “Ras inhibitors” (Revolution Medicines, Inc., priority 2019, dated 2023).
